Test results: patent publication US6872517B2, “Early diagnosis of cancerous and precancerous conditions by leakage of signature peptides and carbohydrates into the bloodstream” (Lankenau Institute for Medical Research, priority 2000, dated 2005)

Tests used:
rat colon epithelium = test: Increased luminal EGF in rat colon; format: in vivo
From the text: The biological significance here is that luminal fluids of many epithelial tissues contain very high levels of certain growth factors (Barnard et al., 1995; Jorgenson et al., 1990; Nexo et al., 1992; Mroczkowski and Reich, 1993), whereas the receptors for these growth factors are normally found on the abluminal cell surface. (Bishop and Wen, 1994; Muto et al., 1991; Thompson, 1988; Scheving et al., 1989). […] (Mullin, 1997). […] This is a direct consequence of the carcinogen's effect on colonic crypt epithelial TJs as described below.

DMH-treated colon = test: Barrier function of DMH-treated colon (Rt, 14C-D-mannitol flux, aberrant crypts); format: in vivo, rat
From the text: In addition, however, weekly changes in barrier function of DMH-treated colon were examined, with an emphasis on assessing that function by means of electrophysiology (Rt) and transepithelial flux of ^14C-D-mannitol.

LLC-PK1 = settings: cited from earlier work
[1] = tested on: renal epithelial cell line; settings: cited from earlier work
occludin = settings: cited from earlier work
[2] = as weeks of DMH exposure progressed

Compound: EGF: Epidermal Growth Factor, a growth factor (NSDSECPLSHDGYCLHDGVCMYIEALDKYACNCVVGYIGERCQYRDLKWWELR; Epidermal growth factor; UniProt P01133 971-1023, looked up)
- carcinomas in carcinogen-treated rat colon (rat colon epithelium; colon treated with dimethylhydrazine, luminal EGF increased): greater number and size of carcinomas
- effect on normal rat colon epithelium (rat colon epithelium; increased EGF concentration in colonic lumen): does not produce any observed effect

Compound: CNNC [DMH, dimethylhydrazine]
- transepithelial electrical resistance (Rt) (DMH-treated colon; [2]): irregular but significant decline
- transepithelial flux of 14C-D-mannitol (DMH-treated colon; [2]): rise
- number of aberrant colon crypts (DMH-treated colon; with increasing weeks of DMH exposure): increased in number

Compound: CCCCCCCCCCCCCC(=O)O[C@@H]1[C@@H](C)[C@@]2(O)[C@@H](C=C(CO)C[C@]3(O)C(=O)C(C)=C[C@@H]23)[C@@H]2C(C)(C)[C@]12OC(C)=O [TPA]
- transepithelial electrical resistance (Rt) (LLC-PK1; LLC-PK1 cell line): rapid, dose dependent decrease
- penetration of tight junctions by ruthenium red (LLC-PK1; TPA-treated cell sheets, not control cultures): able to penetrate
- size of molecules the TJs became leaky to (LLC-PK1; TPA-treated cell sheets): ≤ 2 million
- crossing of paracellular markers D-mannitol (mw 182) and polyethylene glycol (mw 4000) (LLC-PK1; TPA-treated epithelial cell sheet vs control cell sheet): much more rapidly
- morphology after chronic exposure (LLC-PK1; chronic exposure, 4 days or greater): polyp-like, multilayered foci
- transepithelial leakiness to salts [1]: capable of causing transepithelial leakiness to salts
- ZO-1 expression (occludin; immunofluorescence): down regulated
- localization of occludin (occludin; immunofluorescence): very little change
- threonine phosphorylation state of occludin (occludin; in association with increased TJ permeability): decrease
